Assay [1] has as its system Schaffer collateral-CA1 pathway of rat hippocampal slices. The assay can be described thus: LTP induction in Schaffer collateral-CA1 pathway of hippocampal slices (fEPSP slope). The assay is classed as cell-based, Wistar rats. To be noted: fEPSP slope 60 min after weak tetanus (50 Hz, 0.5 s); 1.6 μM perfused 3 min before and 3 min after tetanus.
For the next assay, the system named is rats (spatial memory). Briefly: Morris water maze. To be noted: L-NAME intracerebroventricular (1 mmole/10 mL) 10 min before first trial of daily training. The assay is classed as in vivo. How it is done: Morris water maze: Morris water maze was performed in a circular pool (224 cm in diameter, 46 cm in height) located in a room with distinctive visual cues. Water was filled to a depth of 36 cm and a transparent plastic platform (25×25 cm, 32 cm in height) was located at the center of a fixed quadrant. Rats were trained for two days in the task environment: free-swimming in the pool without the transparent plastic platform. Each training session was 2 min and the rats were picked up from the pool by an experimenter. Then, rats received 4 consecutive daily training trials for the following six days. During each training trial, each rat was placed into the water randomly from one of the quadrants. The rat had to swim until it climbed onto the plastic platform submerged underneath the water. The time duration from being placed into the water to climbing onto the plastic platform was recorded and defined as escape latency. […] Each rat stayed on the platform for 60 s, which also served as the interval of trial. Compound 1 (1 mg/kg) or vehicle was daily injected to each rat 10 min before the first training trial. After the last training trial of each day, each rat was dried by a towel, and an electric heater was placed in its home cage.
Substantial evidence implicates the hippocampus in acquisition and retention of spatial information. See, e.g., Ohon et al. (1979) Behav. Brain Sci. 2: 316–365; and Barnes (1988) Trend Neurosci. 11: 163–169. The effect of Compound 1 on the acquisition of spatial memory in the Morris water maze was tested. Rats received 4 consecutive training trials every day. Compound 1 (1 mg/kg) was daily injected (i.p., 1 mg/kg) 10 min before the first trial of training. […] The escape latencies of 2˜4 trials were 93.8±8.7 s, 79.3±12/3 s and 57.6±12.5 s for a control group, and 50.4±10.2 s, 47.3±6.8 s and 30.3±10.3 for the Compound 1 group (n=10), respectively. The escape latencies of the first trial on the following 3 training days were also markedly shortened in the Compound 1 group. The escape latencies were 91.1±9.8 s, 47.1±3.9 s and 35.3±6.1 s for the control group, and 55.4±12.8 s, 15.3±2.1 s, and 13.4±1.7 s for the Compound 1 group (n=10), respectively. […] The escape latency is shorter in the Compound 1 group throughout the whole experimental period up to 21 days although Compound 1 was only administered […] for 4 days. The mean escape latency on the day-21 is 13.5±1.8 s and 6.0±0.5 s (n=10 each) for the control group and the Compound 1 group, respectively. From results shown above, Compound 1 is a promising drug for improving learning and memory. Compound 1 was mixed with 1.25% carboxymethylcellulose (CMC) and orally delivered to stomach (10 mg/kg) directly 30 min before the first trial for 6 successive days.
Since L-NAME antagonized Compound 1-induced LTP enhancement in hippocampal slices, in vivo experiments were performed to test the effect of L-NAME on the improved learning and memory provoked by Compound 1. In these experiments, rats chronically implanted with cannulae were injected intracerebroventrically with L-NAME (1 mmole/10 mL) or saline 10 min before the first trial of daily training, concomitant with i.p. injection of Compound 1 (1 mg/kg). […] Intracerebroventricular administration of KT 5823 also impaired the Compound 1-induced enhancement.

In assay [2] the test system is hippocampal slices taken from young rats. The assay can be described thus: Plasticity induced by low-frequency stimulation (LTD) in hippocampal slices. The assay is classed as cell-based, Wistar rats. Conditions: 0.02 Hz stimulation; alone. The protocol: After decapitation, brains of either adult ([…], for the induction of long-term potentiation) or young (2–3 weeks old, for the induction of long-term depression) Wistar rats were rapidly removed, and the hippocampus was dissected out. Transverse hippocampal slices (450 μm thickness) were immediately placed in an ice-cold cutting buffer containing 124 mM NaCl, 3 mM KCl, 1.0 mM Na2HPO4, 25 mM NaHCO3, 0.5 mM CaCl2, 5.0 mM MgSO4, 10 mM glucose, saturated with 95% O2 and 5% CO2. The slices were then maintained in an interface chamber at room temperature, and perfused at flow rate of 1–2 mL/min with artificial cerebrospinal fluid (ACSF). The composition of ACSF contained 124 mM NaCl, 4.4 mM KCl, 1.0 mM Na2HPO4, 25 mM NaHCO3, 2.0 mM or 2.5 mM CaCl2, 1.0 mM MgSO4, 10 mM glucose, gassed with 95% O2 and 5% CO2. The field Excitatory Postsynaptic Potentials (fEPSP) was evoked by test pulses through a bipolar stimulating electrode placed on the Schaffer collateral/commissural pathway, and recorded from the stratum radiatum of CA1 using a glass micropipette electrode (5–10 MΩ) filled with 2 M NaCl. The test pulse duration was 100 μsec, and test responses were elicited at 0.02 Hz. To record field potentials in the cortico-amygdala pathway, a stimulating electrode was placed in the external capsule, which contained fibers from the auditory cortex to the lateral amygdala. Bicuculine (10 μM) was present in the perfusion solution when the fEPSPs of amygdala were recorded. To increase the effectiveness of fused pyrazolyl compounds that were applied through the perfusion system, the ACSF level in the recording chamber was sufficiently high to cover the hippocampal slices but not to float them. All fused pyrazolyl compounds were perfused in ACSF.
Evoked fEPSPs were recorded and data were analyzed. The initial slope of the fEPSPs was calculated, and the data were expressed as percentages of the average of the base-line slope of the fEPSPs.
Compound 1 on plasticity induced by low-frequency stimulation (LFS): LFS (900 pulses at 1 Hz) was delivered to hippocampal slices taken from young rats ([…]) to induce long-term depression (LTD). Stimulation of hippocampal slices at 1 Hz for 3 min produced no LTD of synaptic transmission. However, this short-duration LFS induced significant LTD in the presence of Compound 1 (83.4±10.9%, n=3). […] A weaker electrical stimulation at 0.02 Hz was delivered in the presence of both nitric oxide donor nitroprusside ([…]) and Compound 1 (1.6 μM). Simultaneous perfusion of the nitric oxide donor nitroprusside (30 μM) and Compound 1 (1.6 μM) induced LTD.

With `COC(=O)c1ccc(-c2n[nH]c3ccccc23)o1` [Compound 8], the fEPSP in assay [1] is on record as 180.6%.

Turning to `OCc1ccc(-c2nn(Cc3ccccc3)c3cc4c(cc23)OCO4)o1` [Compound 6], the fEPSP in assay [1] came out at 260.3%. `COC(=O)[C@@H](N)CCCNC(=N)N[N+](=O)[O-]` [L-NAME, N^G-nitro-L-arginine-methylester, reference compound]: the “effect of L-NAME on the task” value in the assay on rats (spatial memory) is recorded as “profound amnesia”.

The molecule `COC(=O)c1ccc(-c2nn(Cc3ccccc3)c3ccccc23)o1` [Compound 7] registered a fEPSP in assay [1] of 200.3%. In the case of nitroprusside [reference compound], the “potentiation of fEPSP at 0.02 Hz stimulation, substance alone” value in assay [2] is reported as “produced no potentiation”. Turning to `COCc1ccc(-c2nn(Cc3ccccc3)c3ccccc23)o1` [Compound 4], in assay [1], the fEPSP is 216.9%. The molecule `COc1ccc2c(-c3ccc(CO)o3)nn(Cc3ccccc3)c2c1` [Compound 5] registered a fEPSP in assay [1] of 180.8%. Still for that read-out and setting: the value for `CNCc1ccc(-c2nn(Cc3ccccc3)c3ccccc23)o1` [Compound 2] was 165.9%; that for `OCc1ccc(-c2nn(Cc3ccccc3)c3cc(F)ccc23)o1` [Compound 3] was 218.9%.
